Experimental data as given in patent publication US5411983A, “Certain hyrdoxy-phosphinyl-oxy-phenylmethyl-imidazolium hydroxide inner salts as PAF antagonists” (American Cyanamid Company, priority 1993, dated 1995).
Counter-ions that a name gives are not always drawn.

How the values were obtained:
[1] = system: PAF induced vascular permeability change in mouse skin; experiment: Inhibition of PAF induced vascular permeability change in mouse skin; format: in vivo, mouse (Hilltop ICR); settings: ip, 0.5 h, test compound i.p., PAF i.d., read-out: Inhibition of Vascular Permeability Lesion (ED50 mg/kg)
Experimental: Inhibition of PAF Induced Vascular Permeability Change in Mouse Skin
The rationale for this test is similar to the coinjection test in guinea pigs; however, the test compound was given intraperitoneally rather than coinjected.
Test solutions were prepared as follows: An 80 μg portion of PAF was dissolved in 40 ml of saline to yield a concentration of 2000 ng/ml. A 10 mg portion of histamine diphosphate was dissolved in 100 ml of saline to yield a concentration 100 μg/ml. Test compounds were dissolved in saline and given intraperitoneally (20 mg/kg) 1/2 hour before intradermal challenge with PAF or histamine.
The animals used were Hilltop ICR mice, shaved on their flanks one day before use. The mice were randomly assigned to treated and control groups and were given test compound or saline 1/2 hour before challenge. Each mouse was injected via a tail vein with 0.25 ml of 0.05% Evans' blue dye immediately before the PAF or histamine intradermal injections were made (0.05 ml each), one per side.
Thirty minutes later the animals were killed and the lesions areas measured as described above. Lesion areas in treated animals were expressed as a percent of the control lesions and an ED50 (mg/kg) was calculated from an arcsine area vs. log dose transform.

[2] = target: T1, PAF receptor (Oryctolagus cuniculus, UniProt G1TEI7); experiment: Inhibition of PAF induced platelet aggregation in rabbit platelet rich plasma (PRP); format: cell-based, rabbit (male New Zealand White); parameters: immediately centrifuged at 800 rpm for 10 minutes at room temperature to recover the platelet rich plasma (PRP); endogenous in cells; host or cells: rabbit platelets in platelet rich plasma (male New Zealand White rabbits); settings: for IC50: rabbit platelet rich plasma
T1 sequence (G1TEI7 1-342): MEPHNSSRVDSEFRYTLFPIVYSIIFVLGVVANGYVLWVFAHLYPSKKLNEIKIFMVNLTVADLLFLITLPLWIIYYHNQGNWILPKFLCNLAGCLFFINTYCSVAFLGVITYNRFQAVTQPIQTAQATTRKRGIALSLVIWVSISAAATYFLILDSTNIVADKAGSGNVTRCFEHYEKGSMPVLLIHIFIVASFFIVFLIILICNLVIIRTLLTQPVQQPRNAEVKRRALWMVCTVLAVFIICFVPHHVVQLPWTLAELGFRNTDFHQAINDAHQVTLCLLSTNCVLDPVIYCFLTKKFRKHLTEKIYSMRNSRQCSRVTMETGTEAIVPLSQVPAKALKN
Experimental: (§1) Platelet activating factor (PAF) compounds were evaluated as PAF receptor antagonists in vitro by measuring inhibition of PAF induced platelet aggregation. Platelet aggregation was measured by a modification of the method of A. Wissner, et. al., J. Med. Chem., 27, 1174, 1984.
(§2) Approximately 120-240 ml of blood were collected by cardiac puncture from unanesthetized male New Zealand White rabbits (Whaley's Summit View Farms, Belvedere, N.J.) with the use of 3.2% sodium citrate anticoagulant (1 part of citrate/10 parts of blood). All syringes and pipets were plastic. The blood was gently mixed and immediately centrifuged at 800 rpm for 10 minutes at room temperature to recover the platelet rich plasma (PRP). Platelet poor plasma (PPP) was prepared by centrifuging PRP at 2800 rpm for 10 minutes at room temperature.
(§3) Dilutions (1:3000) Of PRP in Isoton diluent were made and platelet counts were determined on a Coulter Thrombocounter which was standardized with platelet reference standards (Interscience Platelet Control, Portland, Oreg.). PRP platelet counts were adjusted to 500,000 platelets/μl by the addition of PPP.
(§4) L-PAF was obtained from Calbiochem. A stock solution of 1-2 E-3M was prepared in 10% ethanol in water and serial working dilutions were made using phosphate buffered saline (PBS). 1-2 E-3M stock solutions of test compounds were prepared in 100% methanol and serially diluted in PBS. All solutions were made up in plastic tubes, stored on ice and protected from heat and light. Solutions were prepared fresh or frozen at -20° C. and used within 48 hours.
(§5) Incubation mixtures consisted of 400 μl PRP, 50 μl of PBS diluent or test compound and 50 μl of PAF agonist. More specifically, 400 μl of PRP was stabilized in a cuvette for 1-2 minutes at 37° C. in the aggregometer to achieve a stable baseline, then 50 μl of PBS or test compound, was added and incubated for 5 minutes before addition of the challenge concentration of PAF ([…], as determined from the dose response curve for PAF for that experiment). Aggregation was monitored for 5 minutes. Samples containing test compound or diluent were run simultaneously for comparison. Test compounds were initially evaluated at a screening concentration of 1E-5M. Those producing ≥ 50% inhibition of the magnitude of aggregation were then reevaluated in a dose response fashion (final concentrations 1E-7M to 5E-5M) and IC50 values were determined. Ki values were also calculated in some cases from [formula] where Ki =inhibitory constant
(§6) IC50 =molar concentration of test compound which gives 50% inhibition
(§7) [PAF]=molar concentration of PAF used as challenges
(§8) EC50 =molar concentration of PAF which gives 50% of maximal aggregation.
(§9) The recording equipment consisted of single or dual channel Chronolog aggregometers connected to dual channel 10 MV full scale deflection Omniscribe chart recorders (Houston Instruments). […] The bead suspension was used to set the 0% light transmission mark and clear water was used to set the 100% light transmission mark. These limits defined a full scale deflection. The aggregation traces were analyzed by a digitizing method (C. Kohler and B. Zoltan, J. Pharm. Methods, 12, 113, 1984) with x, y coordinate data stored in a computer file. A suitable program computed parameters of interest such as the magnitude of aggregation.

[3] = target: T1, PAF receptor; experiment: Inhibition of PAF induced platelet aggregation in washed rabbit platelets; format: cell-based; parameters: In some experiments, washed platelets were used instead of PRP; endogenous in cells; host or cells: washed rabbit platelets; settings: for Ki: calculated from IC50, [PAF] and EC50; for IC50: challenge concentration of PAF 5E9M [sic]
Experimental: as §1, §2, §3, §4, §5, §6, §7, §8, §9
In some experiments, washed platelets were used instead of PRP. Washed platelet suspensions were prepared as follows. PRP was centrifuged at 2800 rpm for 10 minutes to obtain PPP and a platelet pellet. The pellet was gently suspended and washed in calcium free, albumin free Tyrode's buffer, pH 6.3. The suspension was recentrifuged and the washed pellet was resuspended in normal Tyrodes', buffer (with calcium, but albumin free), pH 7.4. Platelet counts were adjusted to 500,00 platelets/μl.

[4] = system: PAF induced lethality; experiment: PAF induced lethality in the mouse; format: in vivo, mouse (ICR); settings: ip, 1 h, mice, test compound i.p. 1/2 hour before PAF i.v., dose that protects 1/2 the animals, read-out: PAF induced Lethality PD50 (mg/kg I.P., 1/2 hour)
Experimental: PAF Induced Lethality in the Mouse
Test compounds were evaluated for their ability to prevent death induced by an intravenous injection of a lethal dose of PAF.
ICR mice were given test compounds intraperitoneally as described under Inhibition of PAF Induced Vascular Permeability Change in Mouse Skin, 1/2 hour before an intravenous dose of 100 μg/kg PAF in saline. One hour later the number of dead mice were recorded. Protection was expressed as percent survivors in treated group/percent survivors in control group.

[5] = system: PAF induced vascular permeability change in guinea pig skin
Source text: Platelet Activating Factor (PAF) given intradermally, increases capillary permeability, and plasma proteins (e.g albumin) leak from the vascular space into the interstitial fluids of the skin. If the albumin has been previously stained with Evans' blue dye, the lesion area can be visualized as a blue spot in the .skin. A specific PAF antagonist inhibits the development of increased capillary permeability caused by PAF and reduces the leakage of proteins into the skin. Test compounds were evaluated for non-specific effects by monitoring their ability to inhibit or reduce a histamine induced increase in capillary permeability.
Test Solutions were prepared as follows: Evans' Blue Dye (Sigma E2129) was dissolved in saline to yield a 0.1% w/v solution. A 2 mg/ml stock chloroform solution of PAF (1-phosphotidyl, acetyl-O-alkyl; Sigma P9525) was diluted in saline to give final concentrations of 500 and 250 ng/ml. Saline dilutions were made fresh for each test. Histamine diphosphate solutions (Sigma H7375) were prepared by dissolving 10 mg in 100 ml of saline and diluting to 20 μg/ml with saline. Test compounds were dissolved in ethanol at 10 mg/ml and stored at -70° C. Injection mixtures were made by placing 10 μl of test compound solution into 1.0 ml of either the PAF solutions or the histamine solution.
The animals used were Hartley strain guinea pigs weighing 250-350 g, maintained with food and water ad libitum. The animals were shaved on their back and hind feet one day before use.
Each guinea pig was given an intravenous injection of 2 ml of Evans' blue dye solution into a foot vein. Immediately after, a series of six intradermal injections of 0.1 ml each were given, three on each side of the animal. They were: PAF 50 ng (0.1 ml of a 500 ng/ml solution); PAF 25 ng; and histamine diphosphate 2 μg. The left side injections contain 10 μg of test compound while the right side contain an equivalent amount of the ethanol vehicle to serve as a control.
Thirty minutes later the animals were killed by cervical dislocation and the skin reflected from the back. The lesion areas were approximated as the product of the largest diameter and normal diameter both in mm.

[6] = IC50 (M) PRP, inhibition of PAF-induced platelet aggregation, PAF challenge 1E-6M
[7] = IC50 (M) PRP, inhibition of PAF-induced platelet aggregation, PAF challenge 1E-7M
[8] = IC50 (M) PRP, inhibition of PAF-induced platelet aggregation, PAF challenge 5E-8M
[9] = PAF challenge 5E-8M, read-out: IC50 (M) PRP, inhibition of PAF-induced platelet aggregation

| Structure (SMILES) | ED50 [1] [mg/kg] | Ki [2] [µM] | IC50 [2, 6] [M] | IC50 [2, 7] [M] | IC50 [2, 8] [M] | IC50 [3] [µM] | ED50 [4] [mg/kg] | Inhibition of Vascular Permeability Lesion (% of Control) [5] | also measured |
| --- | --- | --- | --- | --- | --- | --- | --- | --- | --- |
| CCCCCCCCCCCCCCCCCCNC(=O)OCC(COP(=O)([O-])Oc1ccccc1C[n+]1ccsc1)OC (centres unmarked) [3-[[2-[(1-Hydroxy-4-methoxy-7-oxo-2,6-dioxa-8-aza-1-phosphahexacosyl)oxy]phenyl]methyl]thiazolium, hydroxide, inner salt, P-oxide] | 5 | 0.31 | 2.5e-05 | 1.4e-06 | 5.6e-07 | 0.052 | < 2.5 | 25 % of Control | Ki [3]: 0.0072 µM |
| CCCCCCCCCCCCCCCCOCC(COP(=O)([O-])Oc1cccc(C[n+]2ccsc2)c1)OC (centres unmarked) [3-[[3-[[[3-(Hexadecyloxy)-2-methoxypropoxy]hydroxyphosphinyl]oxy]phenyl]methyl]thiazolium, hydroxide, inner salt] | 5.6 | 0.49 | 4.7e-05 | 1e-06 | 9.9e-07 | 0.017 | < 1.25 | 25 % of Control | Ki [3]: 0.008 µM |
| COC(COc1ccc(OCc2ccccc2)cc1)COP(=O)([O-])Oc1cccc(C[n+]2ccsc2)c1 (centres unmarked) [3-[[3-[[Hydroxy-2-methoxy-3-[4-(phenylmethoxy)phenoxy]propoxy]phosphinyl]oxy]phenyl]methyl]thiazolium, hydroxide, inner salt] | 20 |  |  |  | 3.3e-05 |  | < 25 | 67 % of Control |  |
| CCCCCCCCCCCCOc1cccc(OCC(COP(=O)([O-])Oc2cccc(C[n+]3ccsc3)c2)OC)c1C (centres unmarked) [3-[[3-[[[3-[3-(Dodecyloxy)-2-methylphenoxy]-2-methoxypropoxy]hydroxyphosphinyl]oxy]phenyl]methyl]thiazolium, hydroxide, inner salt] | 8.2 | 0.51 | 2.4e-05 | 1.9e-06 | 2.3e-06 |  | < 1.25 | 20.4 % of Control |  |
| CCCCCCCCCCCCCCCCOCC(COCc1cccc(Cn2cc[n+](C)c2)c1)OC (centres unmarked) [1-[[3-[[3-(Hexadecyloxy)-2-methoxypropoxy]methyl]phenyl]methyl]-3-methyl-1H-imidazolium, iodide] |  |  |  |  |  | 1.5 |  |  | IC50 [2, 9]: 3.4e-06 M |
| CCCCCCCCCCCCCCc1cccc(OCC(COP(=O)([O-])Oc2cccc(C[n+]3ccsc3)c2)OC)c1 (centres unmarked) [[[3-[[3-[[Hydroxy[2-methoxy-3-(3-tetradecylphenoxy)propoxy]phosphinyl]oxy]phenyl]methyl]thiazolium, hydroxide, inner salt] | 5.3 | 0.21 | 4e-06 | 9.5e-07 | 8.1e-07 | 0.0095 | < 1.25 | 3.8 % of Control | Ki [3]: 0.0014 µM |
| CCCCCCCCCCCCCCCCCCNC(=O)OCC(COP(=O)([O-])Oc1cccc(C[n+]2ccsc2)c1)OC (centres unmarked) [3-[[3-[(1-Hydroxy-4-methoxy-7-oxo-2,6-dioxa-8-aza-1-phosphahexacosyl)oxy]phenyl]methyl]thiazolium, hydroxide, inner salt P-oxide] | 6.2 |  |  |  |  |  |  | 61.8 % of Control |  |
| CCCCCCCCCCCCOc1cccc(OCC(COP(=O)([O-])Oc2cccc(C[N+](C)(C)C)c2)OC)c1C (centres unmarked) [3-[[[3-[3-(Dodecyloxy)-2-methylphenoxy]-2-methoxypropoxy]hydroxyphosphinyl]oxy]-N,N,N-trimethylbenzenemethanaminum, hydroxide, inner salt] |  |  |  |  | 6e-06 |  |  |  |  |
| CCCCCCCCCCCCCCCCCCOP(=O)([O-])Oc1cccc(C[n+]2ccccc2)c1 [1-[[3-[[Hydroxy(octadecyloxy)phosphinyl]oxy]phenyl]methyl]pyridinium, hydroxide, inner salt] |  |  |  |  | 4.2e-05 |  |  |  |  |
| CCCCCCCCCCCCCCCCCCNC(=O)OCC(COP(=O)([O-])Oc1cccc(C[N+](C)(C)C)c1)OC (centres unmarked) [3-[(1-(Hydroxy-4-methoxy-7-oxo-2,6-dioxa-8-aza-1-phosphahexacosyl)oxy]- --N, --N, --N-trimethylbenzenemethanaminium, hydroxide, inner salt, P-oxide] |  |  |  |  | 0.0001 |  |  |  |  |
| CCCCCCCCCCCCCCc1cccc(OCC(COP(=O)([O-])Oc2cccc(C[S+](C)C)c2)OC)c1 (centres unmarked) [[[3-[[Hydroxy-[2-methoxy-3-(3-tetradecylphenoxy]propoxy]phosphinyl]oxy]-phenyl]methyl]dimethylsulfouium, hydroxide, inner salt] |  |  |  | 2.9e-05 | 3.4e-06 |  |  |  |  |
| CCCCCCCCCCCCCCCCOCC(COC(=O)c1cccc(C[N+](C)(C)C)c1)OC (centres unmarked) [3-[[3-(Hexadecyloxy)-2-methoxypropoxy]-carbonyl]- --N, --N, --N-trimethylbenzenemethanaminium, bromide] |  |  |  |  |  |  |  |  | IC50 ([2]; PAF challenge 1E-7M, read-out: IC50 (M) PRP, inhibition of PAF-induced platelet aggregation): 3e-05 M; IC50 [2, 9]: 3.1e-05 M |
| CCCCCCCCCCCCCCCCOCC(COCc1cccc(Cn2ccnc2)c1)OC (centres unmarked) [1-[[3-[[3-(Hexdecyloxy)-2-methoxypropoxy]methyl]phenyl]methyl]-1H-imidazole] |  |  |  |  |  |  |  |  | IC50 [2, 9]: 5.8e-05 M |
